Read-outs that look alike come from different tables or passages of the source. Ends that are not written are not given here.
How the values were obtained:
[1] = system: CD8^+ T cells; assay: IFN-γ ELISPOT, HLA A*0201 transgenic mice; format: cell-based; settings: HLA-A*0201-restricted Jurkat cells as APC, peptide 1 μg/ml, day 7 after 10^11 GE S221
Procedure: The proteome of the DENV2 strain, S221, was inspected for the presence of peptides predicted to bind HLA A*0201 with high affinity. A total of 68 potential H-2^b binding peptides were identified. HLA A*0201 transgenic mice were infected i.v. with 10^11 GE of the DENV2 strain, S221. Seven days post-infection, splenocytes were harvested and CD8^+ T cells isolated. CD8^+ T cells (1.75×10^5) were stimulated with HLA-A*0201-restricted Jurkat cells and 1 μg/ml of individual S221-derived A*02-predicted binding peptides, and IFN-γ ELISPOT was performed. The data are expressed as the mean number of net spot-forming cells (SFC) per 10^6 CD8^+ T cells. The top 20 predicted epitopes, which includes the two positive peptides identified (indicated with an asterisk), are shown. The criteria for positivity were a stimulation index of ≧2.0, p<0.05 when compared with an irrelevant control peptide, and net SFC/10^6 cells of ≧20.
The proteome of the DENV2 strain, S221, was inspected for the presence of peptides predicted to bind HLA A*0201 with high affinity. A total of 68 potential H-2^b binding peptides were identified. HLA A*0201 transgenic mice were infected intravenously (i.v.) with 10^11 GE of the DENV2 strain, S221. […] Referring to FIG. 11, the data are expressed as the mean number of net spot-forming cells (SFC) per 10^6 CD8^+ T cells. […]

[2] = molecular target: T1, purified H-2 K^b molecules (Mus musculus, UniProt P01901); assay: MHC peptide-binding assay, purified H-2 K^b
T1 construct: made in house
Procedure: (§1) MHC purification and quantitative assays to measure the binding affinity of peptides to purified H-2 K^b and H-2 D^b molecules were performed as previously described (Sidney et al., Curr Protoc Immunol 18:1813 2001); Vitiello et al., J Immunol 157:5555 (1996)). Briefly, 0.1-1 nM of radiolabeled peptide was co-incubated at room temperature with 1 μM to 1 nM of purified MHC in the presence of 1-3 μM human β2-microglobulin (Scripps Laboratories) and a mixture of protease inhibitors. After a 2 day incubation, binding of the radiolabeled peptide to the corresponding MHC class I molecule was determined by capturing MHC/peptide complexes on Lumitrac 600 microplates (Greiner Bio-One) coated with either the Y3 (anti-H-2 K^b) or 28-14-8S (anti-H-2 D^b, L^d and D^q) Ab, followed by measurement of bound counts per minute (cpm) using the TopCount microscintillation counter (Packard).
To confirm the MHC class I restriction of the 12 identified epitopes, measurements were performed of their MHC binding capacity using purified K^b and D^b molecules in an in vitro binding assay. Seven of the 12 epitopes bound the predicted allele with either high or intermediate affinity, as indicated by an IC50 of <50 nM or <500 nM, respectively. The five remaining epitopes also bound with biologically relevant affinities in the 500-2000 nM range.

[3] = molecular target: T2, purified H-2 D^b molecules (Mus musculus, UniProt P01899); assay: MHC peptide-binding assay, purified H-2 D^b
T2 construct: made in house
Procedure: as §1, with “Briefly,” for “MHC purification and quantitative assays to measure the binding affinity of peptides to purified H-2 K^b and H-2 D^b molecules were performed as previously described (Sidney et al., Curr Protoc Immunol 18:1813 2001); Vitiello et al., J Immunol 157:5555 (1996)). Briefly,”

[4] = system: CD8^+ T cells; assay: Intracellular cytokine staining (IFN-γ), splenocytes of S221-infected IFN-α/βR^−/− mice; format: cell-based; settings: day 7 after 10^10 GE S221
Procedure: (§2) All Ab were purchased from eBioscience with the exception of anti-CD8α-PerCP and anti-CD107a-FITC which were obtained from BD Biosciences. RBC in blood were lysed using RBC lysis buffer (eBioscience). For surface staining, splenocytes or blood cells were washed, incubated with supernatant from 2.4G2-producing hybridoma cells to block Fc receptors, and labeled with anti-CD8α-PerCP, anti-CD44-APC, and anti-CD62L-PE. For intracellular cytokine staining, 10^6 splenocytes or 10^5 blood cells were plated in 96-well U-bottom plates and stimulated with individual DENV peptides (0.1 μg/ml) in the presence of brefeldin A (GolgiPlug, BD Biosciences) for 5 h. For CD107a staining, CD107a-FITC (or rat IgG2a-FITC) was added to the wells at the same time as the peptide. Cells were washed, incubated with 2.4G2 supernatant, labeled with anti-CD8α-PerCP, fixed and permeabilized using the BD Cytofix/Cytoperm Kit, and stained with anti-IFN-γ-APC and anti-TNF-α-PE. Samples were read on a FACS Caliber (BD Biosciences) and analyzed using FloJo software (Tree Star, Inc.)
The S221-specific CD8^+ T cell response in the IFN-α/βR^−/− mice was studied. […]
The S221-specific CD8^+ T cell response in IFN-α/βR^−/− mice was further studied. […] Referring to FIGS. 5C, 5E and 5F, the number of splenic CD8^+ T cells in naïve (n=4) and infected (n=7) mice was measured (results described above). […] The data are expressed as the percent±SEM of seven mice tested in three independent experiments.
The initial epitope identification studies were performed in wild-type mice. […] Cells were then stained for surface CD8 and intracellular IFN-γ and analyzed by flow cytometry. […] Results are expressed as the mean±SEM of 13 wild-type and 7 IFN-α/βR^−/− mice were tested in at least three independent experiments. Referring FIGS. 8C and D, the figures show kinetics of the DENV-specific CD8^+ T cell response as determined by the study. […]

[5] = system: CD8^+ T cells; assay: Intracellular cytokine staining (IFN-γ), splenocytes of S221-infected wild-type mice; format: cell-based, C57BL/6 mice; settings: wild-type C57BL/6, day 7 after 10^11 GE S221, peptide 0.1 μg/ml, 5 h
Procedure: as §2
To confirm that the IFN-γ response to the MHC class I-binding DENV peptides was mediated by CD8^+ T cells, intracellular cytokine staining (ICS) on CD8^+ T cells isolated from S221-infected wild-type mice was performed. Splenocytes were harvested from C57BL/6 mice 7 days after infection with 10^11 genomic equivlalents (GE) S221 and were re-stimulated in vitro with individual DENV2 peptides or an irrelevant peptide (irr) at 0.1 μg/ml in the presence of brefeldin A for 5 h. Cells were then stained for surface CD8 and intracellular IFN-γ and analyzed by flow cytometry. […] The percent of CD8^+ T cells producing IFN-γ is indicated. Referring to FIG. 2B, the figure is a summary of the DENV2-specific CD8^+ IFN-γ^+ response. The response to the irrelevant control peptide was subtracted from the responses to each DENV2 peptide. Each symbol represents one mouse and the bar represents the geometric mean. The identification of the 12 positive peptides for S221 was confirmed by the intracellular cytokine staining (ICS) (FIG. 2A), and the response to the 8 most dominant peptides was determined (FIG. 2B). The responses ranged from 0.14% recognizing NS2A 36 to 9.8% of CD8^+ T cells recognizing NS4B 99.
Splenocytes were harvested from naïve C57BL/6 mice or mice 7 days after infection with 10^11 GE of S221. The percent of CD8^+ T cells expressing CD44 and CD62L was determined in four independent studies (FIG. 3A). On day 7 after infection, splenocytes were stimulated with the eight major DENV2 peptides (individually; at 0.1 μg/ml) in the presence of brefeldin A, and stained for surface CD8 and intracellular IFN-γ. The percent of CD8^+ T cells producing IFN-γ in response to the irrelevant control peptide was subtracted from the response to each DENV2 peptide to determine the net response. The net responses to the eight major DENV2 peptides were added to determine the percent of DENV2-specific CD44^hi, CD62^lo, and CD44^hiCD62L^lo CD8^+ T cells (FIG. 3B). The data are expressed as the mean percent±SEM of 11-14 mice tested in at least four independent experiments.

[6] = system: CD8^+ T cells; assay: IFN-γ ELISPOT with CD8^+ T cells of DENV2-infected C57BL/6 mice; format: cell-based; settings: PL046 or S221 infected C57BL/6 mice
[7] = system: DENV peptide-pulsed target cells; assay: In vivo cytotoxicity assay; settings: IFN-α/βR^−/− mice infected 7 days previously with 10^10 GE S221; 4 h after i.v. transfer; targets pulsed 0.5 μg/ml
[8] = system: CD8^+ T cells; assay: TNF-α and CD107a staining after peptide re-stimulation; format: cell-based, wild-type or IFN-α/βR^−/− mice; settings: splenocytes day 7 after S221 infection
Procedure: as §2
Because polyfunctional CD8^+ T cell responses are associated with protection (Harari et al., Immunol Rev 211:236 (2006)), the phenotype of the DENV-specific CD8^+ T cells in wild-type and IFN-α/βR^−/− mice was studied in more detail by measuring CD107a expression (CD107a, or LAMP-1, is expressed on the cell surface upon degranulation) and TNF-α production for two of the DENV-specific CD8^+ T cell populations, as described above. To collect the data, splenocytes harvested from wild-type or IFN-α/βR^−/− mice 7 days after infection with 10^11 or 10^10 GE of S221, respectively, were re-stimulated in vitro with C51-59, NS4B99-107, or an irrelevant peptide. An anti-CD107a Ab was added for the duration of the stimulation. Cells were then stained for surface CD8, intracellular IFN-γ and TNF-α, and analyzed by flow cytometry.

[9] = purified MHC, radiolabeled peptide competition, read-out: Binding affinity (IC50 nM) H2-D^b
[10] = purified MHC, radiolabeled peptide competition, read-out: Binding affinity (IC50 nM) H2-K^b

T2 sequence (P61769 21-119): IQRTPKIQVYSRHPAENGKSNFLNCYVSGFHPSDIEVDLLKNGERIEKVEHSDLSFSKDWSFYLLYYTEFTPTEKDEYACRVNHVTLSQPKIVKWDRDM
T2 sequence (P01899 25-362): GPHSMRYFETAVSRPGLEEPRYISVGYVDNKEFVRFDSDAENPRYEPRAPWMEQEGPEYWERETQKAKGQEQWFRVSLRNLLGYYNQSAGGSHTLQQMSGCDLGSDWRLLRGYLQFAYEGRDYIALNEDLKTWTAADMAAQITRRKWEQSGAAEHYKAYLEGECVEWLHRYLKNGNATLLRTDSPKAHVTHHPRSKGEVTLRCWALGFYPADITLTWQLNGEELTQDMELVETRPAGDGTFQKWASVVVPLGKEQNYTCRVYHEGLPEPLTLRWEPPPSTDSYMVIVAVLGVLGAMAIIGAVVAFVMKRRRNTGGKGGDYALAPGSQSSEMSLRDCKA
T1 sequence (P61769 21-119): as the sequence (P61769 21-119) above
T1 sequence (P01901 22-369): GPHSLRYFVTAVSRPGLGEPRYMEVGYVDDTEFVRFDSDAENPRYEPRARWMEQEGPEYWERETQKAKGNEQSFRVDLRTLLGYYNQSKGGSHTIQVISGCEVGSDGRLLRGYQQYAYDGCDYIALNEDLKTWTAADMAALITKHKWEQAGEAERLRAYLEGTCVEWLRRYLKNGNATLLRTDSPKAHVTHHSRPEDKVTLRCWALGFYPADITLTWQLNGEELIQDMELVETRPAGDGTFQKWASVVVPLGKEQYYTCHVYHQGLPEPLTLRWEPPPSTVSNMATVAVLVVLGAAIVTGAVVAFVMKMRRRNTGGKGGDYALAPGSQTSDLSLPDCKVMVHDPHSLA

KLAEAIFKL (listed as Dengue virus)
IFN-γ ELISPOT positivity [1]: positive

RLITVNPIV
IFN-γ ELISPOT positivity [1]: positive

TAIANQATV [NS4B66-74]
IC50 [2]: > 2000 nM
IC50 [3, 9]: 1.3 nM

RALIFILL [Epitope M60-67]
IC50 [2, 10]: 22 nM
% of splenic CD8^+ T cells recognizing the peptide [4]: 11%
IC50 [3]: > 2000 nM
percent of CD8^+ T cells producing IFN-γ / recognizing the peptide [5]: 0.4%

GMLQGRGPL [Epitope C36-44]
IC50 [2, 10]: 1340 nM
IC50 [3, 9]: 820 nM

VSWTMKIL [Epitope E451-458]
IC50 [3]: > 2000 nM

RMLINRFTM [NS5237-45]
IFN-γ ELISPOT response (net SFC per 10^6 CD8^+ T cells), in words [6]: highest responses
IC50 [2]: > 2000 nM
percentage killing of peptide-pulsed target cells [7]: 46%
IC50 [3, 9]: 21 nM

VAFLRFLTI [Epitope C51-59]
IFN-γ ELISPOT response (net SFC per 10^6 CD8^+ T cells), in words [6]: highest responses
IC50 [2, 10]: 20 nM
IC50 [3, 9]: 1380 nM
CD107a surface expression (degranulation) [8]: expressed CD107a on the surface
TNF-α production by peptide-specific CD8^+ T cells [8]: produced TNF-α

MTMRCIGI [Epitope E-2-6]
IFN-γ ELISPOT response (net SFC per 10^6 CD8^+ T cells), in words [6]: highest responses
IC50 [2, 10]: 1080 nM
IC50 [3]: > 2000 nM

VAVSFVTLI [NS2A36-44]
IC50 [2, 10]: 12 nM
IC50 [3, 9]: 997 nM
percent of CD8^+ T cells producing IFN-γ / recognizing the peptide [5]: 0.14%

FSLGVLGM [NS2A8-15]
IFN-γ ELISPOT response (net SFC per 10^6 CD8^+ T cells), in words [6]: highest responses
IC50 [2]: > 2000 nM
IC50 [3, 9]: 1800 nM

LAVTIMAIL [NS2A145-153]
IC50 [2]: > 2000 nM
IC50 [3, 9]: 644 nM

Reference: patent publication US20110150914A1, “COMPOSITIONS AND METHODS FOR DENGUE VIRUS (DV) TREATMENT AND VACCINATION” (priority 2008, published 2011)
